SMILES strings stand for the structures. pIC50: −log10 of the molar value.

The target in this assay is T1, JAK3 (JH1 and JH2 domain) (Homo sapiens, UniProt P52333).
T1 sequence (P52333 521-1111 limits assumed): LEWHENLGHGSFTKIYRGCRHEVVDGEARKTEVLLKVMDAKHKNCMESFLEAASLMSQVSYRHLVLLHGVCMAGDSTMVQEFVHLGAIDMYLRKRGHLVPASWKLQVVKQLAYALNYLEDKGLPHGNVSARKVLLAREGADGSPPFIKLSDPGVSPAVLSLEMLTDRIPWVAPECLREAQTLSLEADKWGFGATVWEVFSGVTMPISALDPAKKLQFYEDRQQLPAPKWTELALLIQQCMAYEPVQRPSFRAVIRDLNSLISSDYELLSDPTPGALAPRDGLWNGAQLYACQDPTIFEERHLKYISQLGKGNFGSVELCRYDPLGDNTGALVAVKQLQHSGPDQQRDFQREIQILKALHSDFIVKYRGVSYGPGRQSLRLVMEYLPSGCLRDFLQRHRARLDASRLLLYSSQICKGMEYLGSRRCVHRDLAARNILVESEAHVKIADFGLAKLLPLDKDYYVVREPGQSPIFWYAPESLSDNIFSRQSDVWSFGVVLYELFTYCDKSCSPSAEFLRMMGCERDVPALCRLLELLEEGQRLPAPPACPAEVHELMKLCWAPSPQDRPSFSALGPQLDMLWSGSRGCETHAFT
The assay is described as follows: JAK3 Kinase Assay (ELISA of peptide substrate phosphorylation). As to conditions: purified JAK3 enzyme, 10 μM ATP, biotinylated peptide substrate, 1 hour at room temperature. The format is biochemical. The gist of the method:
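Sf21-baculovirus-expressed JAK3 (JH1+JH2), glutathione-bead purified, with biotinylated peptide substrate (in buffer containing 10 μM ATP) in HEPES pH 7.5/MgCl2/DTT, 1 h RT. Product was captured on Neutravidin, detected with HRP anti-phosphotyrosine (PY99)/TMB, OD 450/650 nm. Triplicate 16-point half-log series from 200 μM gave IC50; otherwise % inhibition at 1 μM.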
With `O=C1NC(=O)c2c1c1c3ccccc3n3c1c1c2c2ccccc2n1CC(O)(C(=O)N1CCOCC1)C(O)C3` (stereo not drawn) [Cpd 121, 12,13-[2-(morpholin-4-yl-carbonyl)-2,3-dihydroxy-butan-1,4-yl]-12,13-dihydro-5,7-dioxo-6H-indolo[2,3-a]pyrrolo[3,4-c]carbazole], the pIC50 was 7.27. For the compound `COC(=O)/C1=C/Cn2c3ccccc3c3c4c(c5c6ccccc6n(c5c32)C1)C(=O)NC4=O` [Cpd 3, 12,13-(2-methoxycarbonyl-but-2-en-1,4-yl)-12,13-dihydro-5,7-dioxo-6H-indolo[2,3-a]pyrrolo[3,4-c]carbazole], the negative logarithm of the IC50 (pIC50) was 8.15. The value for `O=C1NCc2c1c1c3cc(/C=C/Cn4ccnc4)ccc3n3c1c1c2c2ccccc2n1CC(CO)C3` (stereo not drawn) [Cpd 219, 3-[(1E)-3-1H-imidazol-1-yl-prop-1-en-1-yl]-12,13-(2-hydroxymethyl-propan-1,3-yl)-6,7,12,13-tetrahydro-5-oxo-5H-indolo[2,3-a]pyrrolo[3,4-c]carbazole] was 7.85; that for `O=C(NCCCN1CCOCC1)OCC1Cn2c3ccccc3c3c4c(c5c6ccccc6n(c5c32)C1)C(=O)NC4` (stereo not drawn) [Cpd 165, 12,13-{2-[(3-morpholin-4-yl-prop-1-yl)carbamoyloxymethyl]-propan-1,3-yl}-6,7,12,13-tetrahydro-5-oxo-5H-indolo[2,3-a]pyrrolo[3,4-c]carbazole] was 6.56.

Regarding `CN(C)CCCN(CCCN(C)C)C(=O)OC1Cn2c3ccccc3c3c4c(c5c6ccccc6n(c5c32)CC1O)C(=O)NC4=O` (stereo not drawn) [Cpd 109, 12,13-(2-{[N,N-bis-(3-dimethylamino-prop-1-yl)]carbamoyloxy}-3-hydroxy-butan-1,4-yl)-12,13-dihydro-5,7-dioxo-6H-indolo[2,3-a]pyrrolo[3,4-c]carbazole], the negative-log IC50 (pIC50) is less than 6.70. Turning to `CN1CCN(CCCNC(=O)OCC2(O)Cn3c4ccccc4c4c5c(c6c7ccccc7n(c6c43)C2)C(=O)NC5)CC1` (stereo not drawn) [Cpd 151, 12,13-(2-hydroxy-2-{[3-(4-methyl-piperazin-1-yl)prop-1-yl]carbamoyloxymethyl}-propan-1,3-yl)-6,7,12,13-tetrahydro-5-oxo-5H-indolo[2,3-a]pyrrolo[3,4-c]carbazole], the pIC50 is 7.64. The value for `CN(C)CCSCc1ccc2c(c1)c1c3c(c4c5ccccc5n5c4c1n2CC(O)C(O)C5)CNC3=O` (stereo not drawn) [Cpd 199, 3-[(2-dimethylamino-ethyl)thiomethyl]-12,13-(2,3-dihydroxy-butan-1,4-yl)-6,7,12,13-tetrahydro-5-oxo-5H-indolo[2,3-a]pyrrolo[3,4-c]carbazole] was 6.51. The value for `CC(C)NC(=O)C1(O)Cn2c3ccccc3c3c4c(c5c6ccccc6n(c5c32)CC1O)C(=O)NC4=O` (stereo not drawn) [Cpd 123, 12,13-[2-(isopropyl-carbamoyl)-2,3-dihydroxy-butan-1,4-yl]-12,13-dihydro-5,7-dioxo-6H-indolo[2,3-a]pyrrolo[3,4-c]carbazole] was 7.10.

Turning to `C/C1=C(\C)Cn2c3ccccc3c3c4c(c5c6ccccc6n(c5c32)C1)CNC4=O` [Cpd 4, 12,13-(2,3-dimethyl-but-2-en-1,4-yl)-6,7,12,13-tetrahydro-5-oxo-5H-indolo[2,3-a]pyrrolo[3,4-c]carbazole], the pIC50 was 7.14. Turning to `O=C1NC(=O)c2c1c1c3ccccc3n3c1c1c2c2ccccc2n1CC(O)(C(=O)N1CCN(CCO)CC1)C(O)C3` (stereo not drawn) [Cpd 130], the pIC50 was 7.32. The value for `O=C1NCc2c1c1c3cc(NC4=NCCN4)ccc3n3c1c1c2c2ccccc2n1CC(O)C(O)C3` (stereo not drawn) [Cpd 206] was 7.31; that for `CC(C)(C)OC(=O)CNC(=O)OC1CCn2c3ccccc3c3c4c(c5c6ccccc6n(c5c32)C1)C(=O)NC4=O` (stereo not drawn) [Cpd 37, 12,13-{2-[(t-butoxycarbonylmethyl)carbamoyloxy]-butan-1,4-yl}-12,13-dihydro-5,7-dioxo-6H-indolo[2,3-a]pyrrolo[3,4-c]carbazole] was 8.40; that for `O=C1NCc2c1c1c3ccccc3n3c1c1c2c2ccccc2n1CC(=C(CO)CO)C3` [Cpd 24, 12,13-(2-{[1,1-bis-(dihydroxymethyl)]methylidene}-propan-1,3-yl)-6,7,12,13-tetrahydro-5-oxo-5H-indolo[2,3-a]pyrrolo[3,4-c]carbazole] was 7.43. Then `O=C1NC(=O)c2c1c1c3ccccc3n3c1c1c2c2ccccc2n1CC(OC(=O)N1CCN(C(c2ccccc2)c2ccccc2)CC1)C(O)C3` (stereo not drawn) [Cpd 103, 12,13-{2-[(4-benzhydryl-piperazin-1-yl)carbonyloxy]-3-hydroxy-butan-1,4-yl}-12,13-dihydro-5,7-dioxo-6H-indolo[2,3-a]pyrrolo[3,4-c]carbazole], with 6.36; and `CC(C)NC(=O)OCC1Cn2c3ccccc3c3c4c(c5c6ccccc6n(c5c32)C1)C(=O)NC4` (stereo not drawn) [Cpd 155], with 6.84; and `CN(C)CCNC(=O)OC1CCCn2c3ccccc3c3c4c(c5c6ccccc6n(c5c32)C1)C(=O)NC4=O` (stereo not drawn) [Cpd 114, 12,13-{2-[(2-dimethylamino-ethyl)carbamoyloxy]-pentan-1,5-yl}-12,13-dihydro-5,7-dioxo-6H-indolo[2,3-a]pyrrolo[3,4-c]carbazole], with 6.90.

As to `CN1CCN(C(=O)OC2Cn3c4ccccc4c4c5c(c6c7ccccc7n(c6c43)CC2O)C(=O)NC5=O)CC1` (stereo not drawn) [Cpd 76, 12,13-{2-[(4-methyl-piperazin-1-yl)carbonyloxy]-3-hydroxy-butan-1,4-yl}-12,13-dihydro-5,7-dioxo-6H-indolo[2,3-a]pyrrolo[3,4-c]carbazole], the negative-log IC50 (pIC50) was 7.19. `O=C1NC(=O)c2c1c1c3cc(-c4cccnc4)ccc3n3c1c1c2c2ccccc2n1CC(O)CC3` (stereo not drawn) [Cpd 32, 3-pyridin-3-yl-12,13-(2-hydroxy-butan-1,4-yl)-12,13-dihydro-5,7-dioxo-6H-indolo[2,3-a]pyrrolo[3,4-c]carbazole]: the pIC50 was 7.46. The value for `CN(C)[C@H]1CCN(C(=O)OC2CCn3c4ccccc4c4c5c(c6c7ccccc7n(c6c43)C2)C(=O)NC5=O)C1` (stereo partly drawn) [Cpd 73, 12,13-(2-{[(3S)-3-dimethylamino-pyrrolidin-1-yl]carbonyloxy}-butan-1,4-yl)-12,13-dihydro-5,7-dioxo-6H-indolo[2,3-a]pyrrolo[3,4-c]carbazole] was 7.38; that for `O=C1NCc2c1c1c3cc(/C=N/NC4=NCCN4)ccc3n3c1c1c2c2ccccc2n1CC(O)C(O)C3` (stereo not drawn) [Cpd 200, 3-[(4,5-dihydro-1H-imidazol-2-yl)hydrazomethylene]-12,13-(2,3-dihydroxy-butan-1,4-yl)-6,7,12,13-tetrahydro-5-oxo-5H-indolo[2,3-a]pyrrolo[3,4-c]carbazole] was 7.72. In the case of `CN1CCN(Cc2ccc3c(c2)c2c4c(c5c6ccccc6n6c5c2n3CC(O)C(O)C6)CNC4=O)CC1` (stereo not drawn) [Cpd 193, 3-(4-methyl-piperazin-1-ylmethyl)-12,13-(2,3-dihydroxy-butan-1,4-yl)-6,7,12,13-tetrahydro-5-oxo-5H-indolo[2,3-a]pyrrolo[3,4-c]carbazole], the pIC50 is 6.87. In the case of `Cc1ccc(CNC(=O)OC2CCn3c4ccccc4c4c5c(c6c7ccccc7n(c6c43)C2)C(=O)NC5=O)o1` (stereo not drawn) [Cpd 48, 12,13-(2-{[(5-methyl-furan-2-yl)methyl]carbamoyloxy}-butan-1,4-yl)-12,13-dihydro-5,7-dioxo-6H-indolo[2,3-a]pyrrolo[3,4-c]carbazole], the negative logarithm of the IC50 (pIC50) was 7.96. As to `COc1ccc2[nH]cc(CCNC(=O)OC3Cn4c5ccccc5c5c6c(c7c8ccccc8n(c7c54)CC3O)C(=O)NC6=O)c2c1` (stereo not drawn) [Cpd 87, 12,13-(2-{[2-(5-methoxy-1H-indol-3-yl)ethyl]carbamoyloxy}-3-hydroxy-butan-1,4-yl)-12,13-dihydro-5,7-dioxo-6H-indolo[2,3-a]pyrrolo[3,4-c]carbazole], the negative logarithm of the IC50 (pIC50) was 6.77. `O=C1NCc2c1c1c3cc(Br)ccc3n3c1c1c2c2ccccc2n1C/C=C\C3` [Cpd 6, 3-bromo-12,13-(but-2-en-1,4-yl)-6,7,12,13-tetrahydro-5-oxo-5H-indolo[2,3-a]pyrrolol [3,4-c]carbazole]: the pIC50 is 6.77. For the compound `O=C1NCc2c1c1c3ccccc3n3c1c1c2c2ccccc2n1CC(O)C(O)C3` (stereo not drawn) [Cpd 14, 12,13-(2,3-dihydroxy-butan-1,4-yl)-6,7,12,13-tetrahydro-5-oxo-5H-indolo[2,3-a]pyrrolo[3,4-c]carbazole], the pIC50 was 8.15. Then `COC(=O)C1(O)Cn2c3ccccc3c3c4c(c5c6ccccc6n(c5c32)CC1O)C(=O)NC4=O` (stereo not drawn) [Cpd 12, 12,13-(2-methoxycarbonyl-2,3-dihydroxy-butan-1,4-yl)-12,13-dihydro-5,7-dioxo-6H-indolo[2,3-a]pyrrolo[3,4-c]carbazole], with 9.00; and `CN(C)CCCNC(=O)OC1CCn2c3ccccc3c3c4c(c5c6ccccc6n(c5c32)CC1)C(=O)NC4` (stereo not drawn) [Cpd 186, 12,13-{3-[(3-dimethylamino-prop-1-yl)carbamoyloxy]-pentan-1,5-yl}-6,7,12,13-tetrahydro-5-oxo-5H-indolo[2,3-a]pyrrolo[3,4-c]carbazole], with 6.75.

For the origin of these results see US20070249590A1, “Substituted indolo[2,3-a]pyrrolo[3,4-c]carbazole compounds useful in treating kinase disorders” (priority 2005, published 2007).
